In patent US6355799B1, “Substituted benzene compounds, process for their preparation, and herbicidal and defoliant compositions containing them” (ISK Americas Incorporated, priority 1997, dated 2002):

Experiments:
Assay type in all cases: in vivo
[1] = test system: ivyleaf morningglory (Ipomoea hederacea, IPOHE); experiment: Pre-emerge test, greenhouse herbicide activity screening; details: phytotoxicity rating 0-100, 14 days after application
How it was run: (§1)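 Herbicidal damage is scored 0 (none) to 100 (complete plant death) two weeks after a simulated field spray. Rates span 15–1000 g ai/ha, delivered in acetone at 187 l/ha. For post-emergence treatments, plants have 2–3 leaves and the spray carries 0.25% v/v non-ionic surfactant.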

[2] = test system: lambsquarters (Chenopodium album, CHEAL); experiment: as above; details: phytotoxicity rating 0-100, 14 days after application
How it was run: as §1

[3] = test system: johnsongrass (Sorghum halepense, SORHA); experiment: as above; details: phytotoxicity rating 0-100, 14 days after application
How it was run: as §1

[4] = test system: sicklepod (Cassia obtusifolia, CASOB); experiment: as above; details: phytotoxicity rating 0-100, 14 days after application
How it was run: as §1

[5] = test system: barnyardgrass (Echinochloa crus-galli, ECHCG); experiment: as above; details: phytotoxicity rating 0-100, 14 days after application
How it was run: as §1

[6] = test system: green foxtail (Setaria viridis, SETVI); experiment: as above; details: phytotoxicity rating 0-100, 14 days after application
How it was run: as §1

[7] = test system: large crabgrass (Digitaria sanguinalis, DIGSA); experiment: as above; details: phytotoxicity rating 0-100, 14 days after application
How it was run: as §1

[8] = test system: velvetleaf (Abutilon theophrasti, ABUTH); experiment: as above; details: phytotoxicity rating 0-100, 14 days after application
How it was run: as §1

[9] = test system: field corn (Zea mays L., var. Dekalb 535, CORN); experiment: Pre-emerge test, crop safety; details: crop damage rating 0-100, 14 days after application
How it was run: (§2)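 Compounds in acetone were track-sprayed at 15-1000 g ai/ha (187 l/ha) on sandy loam pots: pre-emerge one day after seeding, post-emerge at 2-3 leaf stage with 0.25% v/v non-ionic surfactant. Phytotoxicity was rated 14 days later on a 0 (no damage) to 100 (complete death) scale.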

[10] = test system: upland rice (Oryza sp., var. Tebonnet, RICE); experiment: Pre-emerge test, crop safety; details: crop damage rating 0-100, 14 days after application
How it was run: as §2

[11] = test system: ivyleaf morningglory (Ipomoea hederacea, IPOHE); experiment: Post-emerge test, greenhouse herbicide activity screening; details: post-emerge, 14 days after application, rating scale 0-100
How it was run: (§3)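 Applied at 15–1000 g ai/ha from acetone in 187 l/ha spray volume. Post-emergence applications included 0.25% v/v non-ionic surfactant and reached plants sown 8–21 days before. Pre-emergence applications were incorporated by surface watering. Efficacy or crop damage was rated on a 0–100 scale after 14 days.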

[12] = test system: redroot pigweed (Amaranthus retroflexus, AMARE); experiment: as above; details: post-emerge, 14 days after application
How it was run: as §3

[13] = test system: lambsquarters (Chenopodium album, CHEAL); experiment: as above; details: post-emerge, 14 days after application, rating scale 0-100
How it was run: as §3

[14] = test system: johnsongrass (Sorghum halepense, SORHA); experiment: as above; details: post-emerge, 14 days after application, rating scale 0-100
How it was run: as §3

[15] = test system: sicklepod (Cassia obtusifolia, CASOB); experiment: as above; details: post-emerge, 14 days after application, rating scale 0-100
How it was run: as §3

[16] = test system: barnyardgrass (Echinochloa crus-galli, ECHCG); experiment: as above; details: post-emerge, 14 days after application, rating scale 0-100
How it was run: as §3

[17] = test system: green foxtail (Setaria viridis, SETVI); experiment: as above; details: post-emerge, 14 days after application, rating scale 0-100
How it was run: as §3

[18] = test system: large crabgrass (Digitaria sanguinalis, DIGSA); experiment: as above; details: post-emerge, 14 days after application, rating scale 0-100
How it was run: as §3

[19] = test system: velvetleaf (Abutilon theophrasti, ABUTH); experiment: as above; details: post-emerge, 14 days after application, rating scale 0-100
How it was run: as §3

[20] = test system: redroot pigweed (Amaranthus retroflexus, AMARE); experiment: Pre-emerge test, greenhouse herbicide activity screening; details: phytotoxicity rating 0-100, 14 days after application
How it was run: as §1

[21] = test system: field corn (Zea mays L., var. Dekalb 535, CORN); experiment: Post-emerge test, crop safety; details: post-emerge, 14 days after application, rating scale 0-100
How it was run: as §1

[22] = test system: upland rice (Oryza sp., var. Tebonnet, RICE); experiment: Post-emerge test, crop safety; details: post-emerge, 14 days after application, rating scale 0-100
How it was run: as §1

[23] = 63 g ai/ha, rating scale 0-100 (0 no damage, 100 complete death)
[24] = 250 g ai/ha, rating scale 0-100

SMILES: COc1c(Cl)cc(F)c(-n2c(=O)cc(C(F)(F)F)n(C)c2=O)c1NC(=O)OCc1ccccc1[N+](=O)[O-] [4-34]
- Pre-emerge Herbicidal Activity IPOHE ([1]; 63 g ai/ha): 30
- Pre-emerge Herbicidal Activity IPOHE ([1]; 250 g ai/ha): 80
- Pre-emerge Herbicidal Activity CHEAL ([2]; 63 g ai/ha): 100
- Pre-emerge Herbicidal Activity CHEAL ([2]; 250 g ai/ha): 100
- Pre-emerge Herbicidal Activity SORHA ([3]; 63 g ai/ha): 40
- Pre-emerge Herbicidal Activity SORHA ([3]; 250 g ai/ha): 80
- Pre-emerge Herbicidal Activity CASOB ([4]; 63 g ai/ha): 40
- Pre-emerge Herbicidal Activity CASOB ([4]; 250 g ai/ha): 95
- Pre-emerge Herbicidal Activity ECHCG ([5]; 63 g ai/ha): 50
- Pre-emerge Herbicidal Activity ECHCG ([5]; 250 g ai/ha): 90
- Pre-emerge Herbicidal Activity SETVI ([6]; 63 g ai/ha): 80
- Pre-emerge Herbicidal Activity SETVI ([6]; 250 g ai/ha): 100
- Pre-emerge Herbicidal Activity DIGSA ([7]; 63 g ai/ha): 90
- Pre-emerge Herbicidal Activity DIGSA ([7]; 250 g ai/ha): 95
- Pre-emerge Herbicidal Activity ABUTH ([8]; 63 g ai/ha): 100
- Pre-emerge Herbicidal Activity ABUTH ([8]; 250 g ai/ha): 100
- Pre-emerge Herbicidal Activity CORN ([9]; 63 g ai/ha): 10
- Pre-emerge Herbicidal Activity CORN ([9]; 250 g ai/ha): 90
- Pre-emerge Herbicidal Activity RICE ([10]; 63 g ai/ha): 50
- Pre-emerge Herbicidal Activity RICE ([10]; 250 g ai/ha): 95
- phytotoxicity rating IPOHE ([11]; 63 g ai/ha): 100
- phytotoxicity rating IPOHE ([11]; 250 g ai/ha): 90
- phytotoxicity rating AMARE [12, 23]: 100
- phytotoxicity rating AMARE [12, 24]: 100
- phytotoxicity rating CHEAL ([13]; 63 g ai/ha): 100
- phytotoxicity rating CHEAL ([13]; 250 g ai/ha): 100
- phytotoxicity rating SORHA ([14]; 63 g ai/ha): 30
- phytotoxicity rating SORHA ([14]; 250 g ai/ha): 30
- phytotoxicity rating CASOB ([15]; 63 g ai/ha): 90
- phytotoxicity rating CASOB ([15]; 250 g ai/ha): 100
- phytotoxicity rating ECHCG ([16]; 63 g ai/ha): 20
- phytotoxicity rating ECHCG ([16]; 250 g ai/ha): 50
- phytotoxicity rating SETVI ([17]; 63 g ai/ha): 50
- phytotoxicity rating SETVI ([17]; 250 g ai/ha): 75
- phytotoxicity rating DIGSA ([18]; 63 g ai/ha): 35
- phytotoxicity rating DIGSA ([18]; 250 g ai/ha): 60
- phytotoxicity rating ABUTH ([19]; 63 g ai/ha): 100
- phytotoxicity rating ABUTH ([19]; 250 g ai/ha): 100
- Pre-emerge Herbicidal Activity AMARE ([20]; 63 g ai/ha): 100
- Pre-emerge Herbicidal Activity AMARE ([20]; 250 g ai/ha): 100
- phytotoxicity rating CORN (crop damage) ([21]; 63 g ai/ha): 25
- phytotoxicity rating CORN (crop damage) ([21]; 250 g ai/ha): 50
- phytotoxicity rating RICE (crop damage) ([22]; 63 g ai/ha): 40
- phytotoxicity rating RICE (crop damage) ([22]; 250 g ai/ha): 80

SMILES: COc1c(Cl)cc(F)c(-n2c(=O)cc(C(F)(F)F)n(C)c2=O)c1NC(=O)Oc1ccccc1C(C)(C)C [4-27]
- Pre-emerge Herbicidal Activity IPOHE ([1]; 63 g ai/ha): 20
- Pre-emerge Herbicidal Activity IPOHE ([1]; 250 g ai/ha): 50
- Pre-emerge Herbicidal Activity CHEAL ([2]; 63 g ai/ha): 80
- Pre-emerge Herbicidal Activity CHEAL ([2]; 250 g ai/ha): 100
- Pre-emerge Herbicidal Activity SORHA ([3]; 63 g ai/ha): 0
- Pre-emerge Herbicidal Activity SORHA ([3]; 250 g ai/ha): 0
- Pre-emerge Herbicidal Activity CASOB ([4]; 63 g ai/ha): 0
- Pre-emerge Herbicidal Activity CASOB ([4]; 250 g ai/ha): 30
- Pre-emerge Herbicidal Activity ECHCG ([5]; 63 g ai/ha): 0
- Pre-emerge Herbicidal Activity ECHCG ([5]; 250 g ai/ha): 0
- Pre-emerge Herbicidal Activity SETVI ([6]; 63 g ai/ha): 30
- Pre-emerge Herbicidal Activity SETVI ([6]; 250 g ai/ha): 50
- Pre-emerge Herbicidal Activity DIGSA ([7]; 63 g ai/ha): 0
- Pre-emerge Herbicidal Activity DIGSA ([7]; 250 g ai/ha): 0
- Pre-emerge Herbicidal Activity ABUTH ([8]; 63 g ai/ha): 80
- Pre-emerge Herbicidal Activity ABUTH ([8]; 250 g ai/ha): 100
- Pre-emerge Herbicidal Activity CORN ([9]; 63 g ai/ha): 0
- Pre-emerge Herbicidal Activity CORN ([9]; 250 g ai/ha): 0
- Pre-emerge Herbicidal Activity RICE ([10]; 63 g ai/ha): 10
- Pre-emerge Herbicidal Activity RICE ([10]; 250 g ai/ha): 50
- phytotoxicity rating IPOHE ([11]; 63 g ai/ha): 70
- phytotoxicity rating IPOHE ([11]; 250 g ai/ha): 80
- phytotoxicity rating AMARE [12, 23]: 60
- phytotoxicity rating AMARE [12, 24]: 80
- phytotoxicity rating CHEAL ([13]; 63 g ai/ha): 60
- phytotoxicity rating CHEAL ([13]; 250 g ai/ha): 100
- phytotoxicity rating SORHA ([14]; 63 g ai/ha): 0
- phytotoxicity rating SORHA ([14]; 250 g ai/ha): 0
- phytotoxicity rating CASOB ([15]; 63 g ai/ha): 20
- phytotoxicity rating CASOB ([15]; 250 g ai/ha): 40
- phytotoxicity rating ECHCG ([16]; 63 g ai/ha): 0
- phytotoxicity rating ECHCG ([16]; 250 g ai/ha): 0
- phytotoxicity rating SETVI ([17]; 63 g ai/ha): 0
- phytotoxicity rating SETVI ([17]; 250 g ai/ha): 10
- phytotoxicity rating DIGSA ([18]; 63 g ai/ha): 0
- phytotoxicity rating DIGSA ([18]; 250 g ai/ha): 0
- phytotoxicity rating ABUTH ([19]; 63 g ai/ha): 70
- phytotoxicity rating ABUTH ([19]; 250 g ai/ha): 100
- Pre-emerge Herbicidal Activity AMARE ([20]; 63 g ai/ha): 70
- Pre-emerge Herbicidal Activity AMARE ([20]; 250 g ai/ha): 100
- phytotoxicity rating CORN (crop damage) ([21]; 63 g ai/ha): 5
- phytotoxicity rating CORN (crop damage) ([21]; 250 g ai/ha): 10
- phytotoxicity rating RICE (crop damage) ([22]; 63 g ai/ha): 0
- phytotoxicity rating RICE (crop damage) ([22]; 250 g ai/ha): 10
